Measurements taken from paper PMC6270994, “The Hydractinia echinata Test-System. III: Structure-Toxicity Relationship Study of Some Azo-, Azo-Anilide, and Diazonium Salt Derivatives” (Molecules, 2014).
Read-outs that look alike come from different tables or passages of the source.

System: Hydractinia echinata
Assay: Hydractinia echinata test system (HeTS): reduction of Cs+-induced metamorphosis of larvae
Type: in vivo
Details: for EC50: Hydractinia echinata
[1] = MRC50 in mol/L = concentration for 50% decrease of metamorphosis vs control, larvae exposed 3 h with Cs+, read after 24 h, read-out: M: experimental Mlog(1/MRC50) (converted)

## Nc1c(N=Nc2ccc(NC(=O)c3ccc(N=Nc4cc(S(=O)(=O)O)c5ccccc5c4N)cc3)cc2)cc(S(=O)(=O)O)c2ccccc12 [Compound 109, 4-Amino-3-[2-(4-{4-[2-(1-amino-4-sulfonaphthalen-2-yl)-diazen-1-yl]-benzamido}phenyl)-diazen-1-yl]-naphthalene-1-sulfonic acid]
[1]
  EC50: 166 µM

## COc1cc(-c2ccc(N=Nc3c(S(=O)(=O)[O-])cc4cc(S(=O)(=O)[O-])cc(N)c4c3O)c(OC)c2)ccc1N=Nc1c(S(=O)(=O)[O-])cc2cc(S(=O)(=O)[O-])cc(N)c2c1O.[Na+].[Na+].[Na+].[Na+] [Compound 91, Direct Blue 15 (Aizen Direct Sky Blue 5B)]
MRC50 in mol/L = concentration for 50% decrease of metamorphosis vs control, larvae exposed 3 h with Cs+, read after 24 h
  M: experimental Mlog(1/MRC50): 3.69

## Cc1ccc(N=Nc2ccc([N+](=O)[O-])cc2)c(O)c1 [Compound 20, 5-Methyl-2-[2-(4-nitrophenyl)-diazen-1-yl]phenol]
[1]
  EC50: 77.6 µM
Parent dye, Table 2, read-out: F(1+2+...)e experimental toxicity log(1/MRC50) (converted)
  EC50: 77.6 µM

## O=C([O-])C1=NN(c2ccc(S(=O)(=O)[O-])cc2)C(=O)C1N=Nc1ccc(S(=O)(=O)[O-])cc1.[Na+].[Na+].[Na+] (stereo not shown) [Compound 55, Acid Yellow 23 (Tartrazine, Food Yellow 4)]
Even at a concentration of 0.11 mol/L
  toxicity: not toxic at all
Same column as M
  M: experimental toxicity (class word): NOTE

## C=C(O)c1cc([N+](=O)[O-])ccc1N=Nc1c(N)ccc2c(O)c(N=Nc3ccc(NC(=O)c4ccc(N=Nc5ccc(O)c(C(=O)O)c5)cc4)cc3)c(S(=O)(=O)O)cc12 [Compound 115, 5-{2-[4-({4-[2-(6-Amino-1-hydroxy-5-{2-[2-(1-hydroxy-ethenyl)-4-nitro-phenyl]diazen-1-yl}-3-sulfonaphthalen-2-yl)diazen-1-yl]phenyl}-carbamoyl)phenyl]-diazen-1-yl}-2-hydroxybenzoic acid]
[1]
  EC50: 138 µM
